This is an account of results in patent US11878995B2, “Oxysterols and methods of use thereof” (SAGE THERAPEUTICS, INC., priority 2016, dated 2024).

Structures are written as SMILES.

For this assay, the target named is T1, GlunN1/GluN2A glutamate receptors (Homo sapiens, UniProt Q05586+Q12879).
T1 construct: expressed in transfected cells
Put plainly: Whole-cell patch clamp of mammalian cells (Ionworks Barracuda), NMDA potentiation. The conditions noted are these: 3 μM compound; HEK293 cells expressing human GRIN1/GRIN2A; co-application with EC20 L-glutamate and 30 μM glycine. It is filed as cell-based. The method, then:
NMDA potentiation was assessed using either whole cell patch clamp of mammalian cells which expressed NMDA receptors.
Whole-Cell Patch Clamp of Mammalian Cells (Ionworks Barracuda (IWB))
The whole-cell patch-clamp technique was used to investigate the effects of compounds on GlunN1/GluN2A glutamate receptors expressed in mammalian cells.
HEK293 cells were transformed with adenovirus 5 DNA and transfected with cDNA encoding the human GRIN1/GRIN2A genes. Stable transfectants were selected using G418 and Zeocin-resistance genes incorporated into the expression plasmid and selection pressure maintained with G418 and Zeocin in the medium. Cells were cultured in Dulbecco's Modified Eagle Medium/Nutrient Mixture (D-MEM/F-12) supplemented with 10% fetal bovine serum, 100 μg/ml penicillin G sodium, 100 μg/ml streptomycin sulphate, 100 μg/ml Zeocin, 5 μg/ml blasticidin and 500 μg/ml G418.
Test article effects were evaluated in 8-point concentration-response format (4 replicate wells/concentration). […]
• a) Intracellular solution (mM): 50 mM CsCl, 90 mM CsF, 2 mM MgCl2, 5 mM EGTA, 10 mM HEPES. […] Cell suspension will be pipetted into the wells (9 μL per well) of the PPC planar electrode. • b) Whole-cell recording configuration will be established via patch perforation with membrane currents recorded by on-board patch clamp amplifiers. • c) Two recordings (scans) will be performed. […]
A general note: Patch clamp records ionic current or voltage across a cell membrane.

T1 sequence (Q12879 23-1464, other chains not shown): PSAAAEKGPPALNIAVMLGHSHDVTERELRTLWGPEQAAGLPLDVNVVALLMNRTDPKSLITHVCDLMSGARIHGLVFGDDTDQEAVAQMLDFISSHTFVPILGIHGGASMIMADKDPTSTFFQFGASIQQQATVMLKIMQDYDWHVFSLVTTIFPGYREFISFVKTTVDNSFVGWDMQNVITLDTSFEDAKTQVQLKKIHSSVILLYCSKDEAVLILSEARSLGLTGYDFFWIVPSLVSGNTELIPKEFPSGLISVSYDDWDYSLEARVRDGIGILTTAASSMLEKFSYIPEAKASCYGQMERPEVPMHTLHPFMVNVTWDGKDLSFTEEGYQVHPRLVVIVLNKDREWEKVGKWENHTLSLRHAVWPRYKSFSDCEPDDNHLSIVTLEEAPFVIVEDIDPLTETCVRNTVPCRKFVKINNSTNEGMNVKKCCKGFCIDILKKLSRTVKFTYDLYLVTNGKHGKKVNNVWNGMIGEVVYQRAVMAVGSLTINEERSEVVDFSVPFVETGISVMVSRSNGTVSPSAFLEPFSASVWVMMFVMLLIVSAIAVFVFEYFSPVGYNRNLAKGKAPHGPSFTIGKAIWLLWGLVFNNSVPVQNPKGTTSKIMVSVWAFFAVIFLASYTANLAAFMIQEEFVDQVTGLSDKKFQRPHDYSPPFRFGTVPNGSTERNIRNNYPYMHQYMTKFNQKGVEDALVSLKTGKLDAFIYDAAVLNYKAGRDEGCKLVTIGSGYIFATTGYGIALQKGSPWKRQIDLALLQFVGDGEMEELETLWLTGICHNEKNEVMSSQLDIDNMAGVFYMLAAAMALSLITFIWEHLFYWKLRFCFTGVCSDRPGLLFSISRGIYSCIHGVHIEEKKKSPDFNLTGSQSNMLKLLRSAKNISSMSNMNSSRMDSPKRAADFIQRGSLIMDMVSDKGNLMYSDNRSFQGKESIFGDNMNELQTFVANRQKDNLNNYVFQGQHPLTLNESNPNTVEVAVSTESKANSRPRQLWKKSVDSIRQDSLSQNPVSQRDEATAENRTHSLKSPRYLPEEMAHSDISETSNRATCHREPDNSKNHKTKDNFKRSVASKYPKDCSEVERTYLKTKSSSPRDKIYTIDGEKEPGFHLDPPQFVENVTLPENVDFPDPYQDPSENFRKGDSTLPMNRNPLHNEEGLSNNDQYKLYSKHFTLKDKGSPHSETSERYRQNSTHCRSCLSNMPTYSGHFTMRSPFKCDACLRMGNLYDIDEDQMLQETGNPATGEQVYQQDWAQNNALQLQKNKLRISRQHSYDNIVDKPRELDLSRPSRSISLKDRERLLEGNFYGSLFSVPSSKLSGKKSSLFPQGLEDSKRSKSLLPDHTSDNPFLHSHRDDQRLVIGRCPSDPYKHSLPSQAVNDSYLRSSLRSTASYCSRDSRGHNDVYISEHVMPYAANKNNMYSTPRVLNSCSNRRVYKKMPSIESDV

In the case of `[2H]C(O)(CC[C@@H](C)[C@H]1CC[C@H]2[C@@H]3CC=C4C[C@]([2H])(O)CC[C@]4(C)[C@H]3CC[C@]12C)C(C)C` (stereo partly shown) [Compound 7], the “GluN2A PCA IWB Ephys % potentiation at 3 μM” value is recorded as “C (“C” indicates potentiation of >150% to 225%)”.
